Patent US20260207602A1, “EGFR INHIBITORS” (Blueprint Medicines Corporation, priority 2022, published 2026)

Tests used:
EGFR L858R = target: T1, EGFR L858R (Homo sapiens, UniProt P00533, L858R); assay: Biochemical EGFR inhibition assay (Caliper mobility shift), EGFR L858R; settings: biochemical Caliper mobility shift assay, EGFR L858R enzyme; read-out: Enz EGFR L858R IC50
T1 construct: purchased SignalChem E10-122BG
Summary of the method: (§1)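 Apparent IC50 values come from Caliper electrophoretic separation of phosphorylated and unphosphorylated 5-FAM peptide (2.5 μM). ATP was either 1.0 mM or at Km; HEPES pH 7.5 buffer with MgCl2, DTT, 1% DMSO. Reactions ran at 25 °C until 10–20% phosphorylated, then EDTA quench.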

EGFR (d746-750) = target: T2, EGFR (d746-750) (Homo sapiens, UniProt P00533, DEL746-750); assay: Biochemical EGFR inhibition assay (Caliper mobility shift), EGFR (d746-750); settings: biochemical Caliper mobility shift assay, EGFR Exon 19-del enzyme; read-out: Enz EGFR Exon 19-del IC50
T2 construct: purchased SignalChem E10-122JG
Summary of the method: as §1

[1] = target: intracellular phosphorylation of EGFR (Tyr1068) in PC-9 cells (Homo sapiens, UniProt P00533, DEL746-750); assay: PC-9 pEGFR AlphaLISA assay; type: cell-based; settings: 4 hours incubation, read-out: Phos EGFR PC9 IC50
Summary of the method: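 PC-9 cells (EGFR del746-750) in phenol-free DMEM/10% FBS, adhered overnight, then exposed to 10-point 4-fold compound dilutions for 4 h at 37 °C. Lysates assayed for pEGFR Tyr1068 by AlphaLISA SureFire Ultra; IC50 from percent pEGFR inhibition vs log concentration.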

T2 sequence (P00533 with tags, fused parts or gaps DEL746-750 limits assumed): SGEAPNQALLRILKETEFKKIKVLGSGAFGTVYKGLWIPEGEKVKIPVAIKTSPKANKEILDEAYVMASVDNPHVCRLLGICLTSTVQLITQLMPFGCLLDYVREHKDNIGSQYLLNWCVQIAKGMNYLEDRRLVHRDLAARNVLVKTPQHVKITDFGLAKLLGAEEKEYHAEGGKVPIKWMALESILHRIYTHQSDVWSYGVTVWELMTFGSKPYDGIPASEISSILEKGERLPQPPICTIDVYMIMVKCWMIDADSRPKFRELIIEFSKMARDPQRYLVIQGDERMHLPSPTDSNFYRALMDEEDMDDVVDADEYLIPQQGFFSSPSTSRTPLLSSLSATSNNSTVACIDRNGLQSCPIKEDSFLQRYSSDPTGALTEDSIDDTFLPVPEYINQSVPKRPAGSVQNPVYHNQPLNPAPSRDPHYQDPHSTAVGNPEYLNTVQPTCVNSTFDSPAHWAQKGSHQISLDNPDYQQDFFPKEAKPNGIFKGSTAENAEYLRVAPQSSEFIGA
Chain of intracellular phosphorylation of EGFR (Tyr1068) in PC-9 cells (P00533 with tags, fused parts or gaps DEL746-750): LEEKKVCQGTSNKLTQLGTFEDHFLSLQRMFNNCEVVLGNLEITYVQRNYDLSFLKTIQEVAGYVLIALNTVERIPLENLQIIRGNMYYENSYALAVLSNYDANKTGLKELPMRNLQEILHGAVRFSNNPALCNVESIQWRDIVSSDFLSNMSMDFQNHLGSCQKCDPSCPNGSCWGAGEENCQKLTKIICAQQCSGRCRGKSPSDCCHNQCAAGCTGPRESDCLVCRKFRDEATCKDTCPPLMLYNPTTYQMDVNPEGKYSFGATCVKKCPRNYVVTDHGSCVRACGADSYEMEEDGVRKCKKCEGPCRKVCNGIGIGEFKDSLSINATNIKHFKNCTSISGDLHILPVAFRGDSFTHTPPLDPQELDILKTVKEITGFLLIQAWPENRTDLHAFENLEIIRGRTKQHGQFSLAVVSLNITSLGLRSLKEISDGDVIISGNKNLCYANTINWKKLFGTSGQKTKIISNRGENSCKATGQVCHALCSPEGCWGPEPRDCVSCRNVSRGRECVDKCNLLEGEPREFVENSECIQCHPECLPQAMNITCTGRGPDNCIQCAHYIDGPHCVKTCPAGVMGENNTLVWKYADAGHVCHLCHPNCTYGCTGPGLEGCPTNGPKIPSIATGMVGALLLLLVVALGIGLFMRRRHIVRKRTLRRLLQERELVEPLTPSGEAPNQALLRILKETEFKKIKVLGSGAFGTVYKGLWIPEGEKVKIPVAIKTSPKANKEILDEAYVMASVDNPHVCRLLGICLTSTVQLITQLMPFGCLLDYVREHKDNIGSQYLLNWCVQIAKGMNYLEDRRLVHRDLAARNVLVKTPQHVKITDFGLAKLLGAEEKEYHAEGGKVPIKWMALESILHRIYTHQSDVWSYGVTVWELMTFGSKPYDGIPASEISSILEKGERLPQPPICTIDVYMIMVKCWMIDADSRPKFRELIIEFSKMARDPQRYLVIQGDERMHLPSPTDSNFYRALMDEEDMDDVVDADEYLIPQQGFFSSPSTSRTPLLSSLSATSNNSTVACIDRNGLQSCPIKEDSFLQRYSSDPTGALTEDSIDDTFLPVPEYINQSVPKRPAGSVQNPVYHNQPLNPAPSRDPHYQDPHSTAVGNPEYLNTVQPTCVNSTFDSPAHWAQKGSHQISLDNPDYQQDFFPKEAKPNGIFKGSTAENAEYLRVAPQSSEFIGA
T1 sequence (P00533 25-1210 L858R): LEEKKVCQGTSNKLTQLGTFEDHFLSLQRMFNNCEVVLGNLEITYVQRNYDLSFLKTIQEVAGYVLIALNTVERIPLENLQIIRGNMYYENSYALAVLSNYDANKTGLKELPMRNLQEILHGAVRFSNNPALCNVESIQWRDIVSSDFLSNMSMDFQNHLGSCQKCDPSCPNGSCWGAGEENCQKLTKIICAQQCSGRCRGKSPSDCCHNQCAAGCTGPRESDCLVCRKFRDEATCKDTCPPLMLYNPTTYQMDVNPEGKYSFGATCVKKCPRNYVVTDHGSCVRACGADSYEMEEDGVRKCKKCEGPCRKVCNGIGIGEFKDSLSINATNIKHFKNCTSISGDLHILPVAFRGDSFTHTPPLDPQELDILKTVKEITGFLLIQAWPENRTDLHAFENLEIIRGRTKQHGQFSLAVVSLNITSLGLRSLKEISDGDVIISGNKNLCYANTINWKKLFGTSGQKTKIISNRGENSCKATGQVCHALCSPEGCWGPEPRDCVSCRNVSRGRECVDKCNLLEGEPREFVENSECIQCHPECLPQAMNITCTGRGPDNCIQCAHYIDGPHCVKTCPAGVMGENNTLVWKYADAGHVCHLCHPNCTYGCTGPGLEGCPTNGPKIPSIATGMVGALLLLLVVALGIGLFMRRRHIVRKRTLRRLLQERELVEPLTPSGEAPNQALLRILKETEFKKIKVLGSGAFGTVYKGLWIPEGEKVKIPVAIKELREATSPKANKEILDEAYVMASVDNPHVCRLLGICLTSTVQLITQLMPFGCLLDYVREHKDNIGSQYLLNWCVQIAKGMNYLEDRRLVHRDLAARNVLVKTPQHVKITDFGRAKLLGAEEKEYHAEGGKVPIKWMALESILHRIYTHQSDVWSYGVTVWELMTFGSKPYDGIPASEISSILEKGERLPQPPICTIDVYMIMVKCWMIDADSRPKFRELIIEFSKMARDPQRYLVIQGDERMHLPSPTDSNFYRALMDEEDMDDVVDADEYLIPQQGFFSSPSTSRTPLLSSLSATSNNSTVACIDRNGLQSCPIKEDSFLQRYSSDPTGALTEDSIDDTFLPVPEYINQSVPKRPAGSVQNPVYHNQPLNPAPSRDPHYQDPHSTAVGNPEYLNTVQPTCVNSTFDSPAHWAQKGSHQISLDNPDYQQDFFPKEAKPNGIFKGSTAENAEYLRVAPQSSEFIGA

| SMILES | IC50 (EGFR L858R) [nM] | IC50 (EGFR (d746-750)) [nM] | IC50 [1] [nM] |
| --- | --- | --- | --- |
| C[C@H](CN(C)C)Oc1cc(N2CC3CC(C2)O3)cc2ncnc(Nc3ccc4ncsc4c3F)c12 [Example 176, N-(7-(6-oxa-3-azabicyclo[3.1.1]heptan-3-yl)-5-(((R)-1-(dimethylamino)propan-2-yl)oxy)quinazolin-4-yl)-7-fluorobenzo[d]thiazol-6-amine] | 10.1 to 50 | ≤ 10 | ≤ 10 |
| Cn1cc(-c2cc(OCC3CCOC3)c3c(Nc4ccc5ncsc5c4)ncnc3c2)cn1 (stereo not drawn) [Example 413, N-(7-(1-methyl-1H-pyrazol-4-yl)-5-((tetrahydrofuran-3-yl)methoxy)quinazolin-4-yl)benzo[d]thiazol-6-amine] | ≤ 10 | ≤ 10 | 10.1 to 50 |
| C[C@@H](Oc1c(F)c(-c2cnn(C)c2)cc2ncnc(Nc3ccc4ncsc4c3F)c12)C1COC1 (single isomer, unassigned) [Example A28] | 10.1 to 50 | ≤ 10 | > 50.1 |
| C[C@H](CN(C)C)Oc1cc(-c2cnn(C)c2)cc2ncnc(Nc3ccc4ncsc4c3F)c12 [Example 140, (R)-N-(5-((1-(dimethylamino)propan-2-yl)oxy)-7-(1-methyl-1H-pyrazol-4-yl)quinazolin-4-yl)-7-fluorobenzo[d]thiazol-6-amine] | ≤ 10 | ≤ 10 | ≤ 10 |
| C[C@@H](Oc1cc(-c2cnn(C)c2)cc2ncnc(Nc3ccc4ncsc4c3F)c12)C1CN(C)C1 (single isomer, unassigned) [Example 388] | > 50.1 | 10.1 to 50 | > 50.1 |
| CN1C[C@H](F)C[C@@H](Oc2cc(-c3cnn(C)c3)cc3ncnc(Nc4ccc5ncsc5c4)c23)C1 (single isomer, unassigned) [Example 333] | ≤ 10 | ≤ 10 | 10.1 to 50 |
| C[C@H](CN1CCOCC1)Oc1cc(-c2cnn(C)c2)cc2ncnc(Nc3ccc4ncsc4c3)c12 [Example 395, (R)-N-(7-(1-methyl-1H-pyrazol-4-yl)-5-((1-morpholinopropan-2-yl)oxy)quinazolin-4-yl)benzo[d]thiazol-6-amine] | ≤ 10 | ≤ 10 | 10.1 to 50 |
| CC(C)N1CC[C@@H](Oc2cc(-c3cnn(C)c3)cc3ncnc(Nc4ccc5ncsc5c4)c23)C1=O (single isomer, unassigned) [Example 63] | ≤ 10 | ≤ 10 | ≤ 10 |
| COCCN1CCC(Oc2cc(-c3cnn(C)c3)cc3ncnc(Nc4ccc5ncsc5c4)c23)CC1 [Example 313, N-(5-((1-(2-methoxyethyl)piperidin-4-yl)oxy)-7-(1-methyl-1H-pyrazol-4-yl)quinazolin-4-yl)benzo[d]thiazol-6-amine] | ≤ 10 | ≤ 10 | 10.1 to 50 |
| CN1CC[C@H](Oc2cc(-c3cnn(C)c3)cc3ncnc(Nc4ccc5ncsc5c4)c23)C1=O (single isomer, unassigned) [Example 24] | ≤ 10 | ≤ 10 | 10.1 to 50 |
| CN1CCC(n2cc(-c3cc(F)c4c(Nc5ccc6ncsc6c5F)ncnc4c3)cn2)CC1 [Example 227, 7-fluoro-N-(5-fluoro-7-(1-(1-methylpiperidin-4-yl)-1H-pyrazol-4-yl)quinazolin-4-yl)benzo[d]thiazol-6-amine] | ≤ 10 | ≤ 10 | 10.1 to 50 |
| Cn1cc(-c2cc(OCC(=O)N3CCOCC3)c3c(Nc4ccc5ncsc5c4)ncnc3c2)cn1 [Example 273, 2-((4-(benzo[d]thiazol-6-ylamino)-7-(1-methyl-1H-pyrazol-4-yl)quinazolin-5-yl)oxy)-1-morpholinoethan-1-one] | ≤ 10 | ≤ 10 | ≤ 10 |
| Cn1cc(-c2cc(OC3CCOC3)c3c(Nc4ccc5ncsc5c4)ncnc3c2)cn1 (stereo not drawn) [Example 415, N-(7-(1-methyl-1H-pyrazol-4-yl)-5-((tetrahydrofuran-3-yl)oxy)quinazolin-4-yl)benzo[d]thiazol-6-amine] | ≤ 10 | ≤ 10 | 10.1 to 50 |
| Cn1cc(-c2cc(O[C@@H]3CCOC[C@@H]3F)c3c(Nc4ccc5ncsc5c4)ncnc3c2)cn1 (single isomer, unassigned) [Example 43] | ≤ 10 | ≤ 10 | 10.1 to 50 |
| CN1CCC(n2cc(-c3cc4ncnc(Nc5ccc6ncsc6c5F)c4cc3F)cn2)CC1 [Example 356, 7-fluoro-N-(6-fluoro-7-(1-(1-methylpiperidin-4-yl)-1H-pyrazol-4-yl)quinazolin-4-yl)benzo[d]thiazol-6-amine] | ≤ 10 | ≤ 10 | ≤ 10 |
| Cn1cc(-c2cc(OC3CCN(CC(F)F)CC3)c3c(Nc4ccc5ncsc5c4)ncnc3c2)cn1 [Example 311, N-(5-((1-(2,2-difluoroethyl)piperidin-4-yl)oxy)-7-(1-methyl-1H-pyrazol-4-yl)quinazolin-4-yl)benzo[d]thiazol-6-amine] | ≤ 10 | ≤ 10 | ≤ 10 |
| CCC(=O)N1CCC(Nc2cc3c(Nc4ccc5ncsc5c4)ncnc3cc2-c2ccn(C)n2)CC1 [Example 257, 1-(4-((4-(benzo[d]thiazol-6-ylamino)-7-(1-methyl-1H-pyrazol-3-yl)quinazolin-6-yl)amino)piperidin-1-yl)propan-1-one] | ≤ 10 | ≤ 10 | ≤ 10 |
| CO[C@@H]1CN(C)CC[C@H]1Oc1cc(-c2cnn(C)c2)cc2ncnc(Nc3ccc4ncsc4c3)c12 (single isomer, unassigned) [Example A43] | ≤ 10 | ≤ 10 | 10.1 to 50 |
| COc1nn(C)cc1-c1cc(OC2CCN(C3COC3)CC2)c2c(Nc3ccc4ncsc4c3)ncnc2c1 [Example 306, N-(7-(3-methoxy-1-methyl-1H-pyrazol-4-yl)-5-((1-(oxetan-3-yl)piperidin-4-yl)oxy)quinazolin-4-yl)benzo[d]thiazol-6-amine] | ≤ 10 | ≤ 10 | ≤ 10 |
| CC[C@H](Oc1cc(-c2cnn(C)c2)cc2ncnc(Nc3ccc4ncsc4c3F)c12)C1CN(C)C1 (single isomer, unassigned) [Example 390] | > 50.1 | > 50.1 | > 50.1 |
| Cn1cc(-c2cc(O[C@H]3CCCNC3)c3c(Nc4ccc5ncsc5c4)ncnc3c2)cn1 [Example 134, (S)-N-(7-(1-methyl-1H-pyrazol-4-yl)-5-(piperidin-3-yloxy)quinazolin-4-yl)benzo[d]thiazol-6-amine] | ≤ 10 | ≤ 10 | 10.1 to 50 |
| C[C@@H]1OC[C@H]1Oc1cc(-c2cnn(C)c2)cc2ncnc(Nc3ccc4ncsc4c3)c12 (racemic) [Example 10, trans-N-(7-(1-methyl-1H-pyrazol-4-yl)-5-(((2S,3S)-2-methyloxetan-3-yl)oxy)quinazolin-4-yl)benzo[d]thiazol-6-amine] | ≤ 10 | ≤ 10 | 10.1 to 50 |
| Cc1cn(-c2cc(OC(C)CN(C)C)c3c(Nc4ccc5ncsc5c4)ncnc3c2)c(=O)n1C (stereo not drawn) [Example 203, 1-(4-(benzo[d]thiazol-6-ylamino)-5-((1-(dimethylamino)propan-2-yl)oxy)quinazolin-7-yl)-3,4-dimethyl-1,3-dihydro-2H-imidazol-2-one] | 10.1 to 50 | ≤ 10 | 10.1 to 50 |
| COCCOc1cc(O[C@H](C)C2COC2)c2c(Nc3ccc4ncsc4c3F)ncnc2c1 (single isomer, unassigned) [Example 84] | ≤ 10 | ≤ 10 | ≤ 10 |
| Cn1cc(-c2cc(O[C@H]3CCNC[C@@H]3F)c3c(Nc4ccc5ncsc5c4)ncnc3c2)c(OC(F)F)n1 (racemic) [Example 370, N-(7-(3-(difluoromethoxy)-1-methyl-1H-pyrazol-4-yl)-5-(((3S,4S)-3-fluoropiperidin-4-yl)oxy)quinazolin-4-yl)benzo[d]thiazol-6-amine] | ≤ 10 | ≤ 10 | ≤ 10 |
| C[C@@H](Oc1cc(-c2cnn(C)c2)cc2ncnc(Nc3ccc4ncsc4c3)c12)[C@H]1CN(C)CCO1 (single isomer, unassigned) [Example 209] | ≤ 10 | ≤ 10 | ≤ 10 |
| CO[C@@H]1CCNC[C@H]1Oc1cc(-c2cnn(C)c2)cc2ncnc(Nc3ccc4ncsc4c3)c12 (single isomer, unassigned) [Example A37] | ≤ 10 | ≤ 10 | 10.1 to 50 |
| Cn1cc(-c2cc(OC[C@]34COC[C@H]3C4)c3c(Nc4ccc5ncsc5c4)ncnc3c2)cn1 (single isomer, unassigned) [Example 148] | ≤ 10 | ≤ 10 | 10.1 to 50 |
| CN(C)C1(COc2cc(-c3cnn(C)c3)cc3ncnc(Nc4ccc5ncsc5c4)c23)COC1 [Example 187, N-(5-((3-(dimethylamino)oxetan-3-yl)methoxy)-7-(1-methyl-1H-pyrazol-4-yl)quinazolin-4-yl)benzo[d]thiazol-6-amine] | 10.1 to 50 | ≤ 10 | 10.1 to 50 |
| Cn1cc(-c2cc(O[C@@H]3C[C@@H](O)[C@@H](O)C3)c3c(Nc4ccc5ncsc5c4)ncnc3c2)cn1 (single isomer, unassigned) [Example A22] | ≤ 10 | ≤ 10 | 10.1 to 50 |
